“Also recorded” adds a separate entry of the source. No end group written: not given here.
What was measured:
primed T cells = assay: proliferation of TCR-stimulated primed T cells (3H-thymidine incorporation); type: cell-based, mouse (BALB/c); conditions: primed T cells + anti-CD3ε 2C11, α-MSH present, 3H-thymidine at 24 h, counted at 48 h
CD3ε = assay: tyrosine phosphorylation of CD3ε, immunoprecipitation and anti-phosphotyrosine immunoblot; type: cell-based, mouse
Procedure: Immunoprecipitation and Immunoblotting. Enriched primed T cells (2×10^6 cells) in a 24 well Corning plate were TCR-stimulated with 2C11 in the presence of α-MSH (30 pg/ml) under serum-free conditions for 15 minutes. The T cells were collected, placed in a microcentrifuge tube and washed once with 10 mM Tris buffered saline (TBS) and lysed for 30 minutes in 100 μl of ice cold lysate buffer (10 mM TBS, 1% NP-40, 0.5% sodium deoxycholate, 0.1% SDS, 100 μg/ml phenylmethylsulfonyl fluoride (PMSF), 60 μg/ml Aprotinin, and 1 mM sodium orthovanadate). The cells were passed through a 21 gauge needles three times, and an additional 2 μl of 10 mg/ml PMSF was added. The tubes were incubated for an additional 30 minutes on ice and were centrifuged for 20 minutes, 4° C., 13,000×g. The supernatant was collected and used as total cellular lysate. The protein concentration was measured, and added to equal amounts of protein lysate were 20 μg/ml anti-CD3ζ antibody, or anti-CD3ε antibody plus rabbit anti-hamster IgG antibody and incubated overnight at 4° C. The rabbit anti-hamster IgG was needed for the CD3ε immunoprecipitation, since much of the CD3ε was bound by 2C11 a hamster anti-mouse […] and hamster antibody weakly binds protein-G. Protein-G sepharose beads (Pharmacia, Piscataway, N.J.) were added to the antibody containing lysates and incubated for 1 hour at room temperature with end over end agitation. The beads were centrifuged and washed 4 times with 10 mM TBS containing 0.5% sodium deoxycholate. After the final wash the beads were resuspended in 20 μl of distilled water and 20 μl non-reducing SDS Tris-glycine sample buffer (Novex, San Diego, Calif.), boiled for 5 minutes and applied into two wells (20 μl) of a 8-16% Tris-glycine polyacrylamide gel (Novex).
Following electrophoresis in a Novex Xcell II minicell and blot module, the proteins were transferred from the gel onto a nitrocellulose membrane (Novex) by electroblotting. The membrane was blocked with 1% BSA in 0.01 M TBS for 1 hour room temperature. […] Membranes were digitally photographed and analyzed using NIH Image software to integrate the band intensities relative to band area minus background. […]
The enriched primed T cells (2×10^6 cells) were incubated with anti-CD3 in the presence of α-MSH (30 pg/ml) for 15 minutes. […] The immunoprecipitates were analyzed by non-reducing SDS-PAGE (on a 8-16% gradient gel), followed by transfer to a nitrocellulose filter and immunoblotting with anti-phosphotyrosine antibody: (1) Unstimulated primed T cells treated with α-MSH; (2) Unstimulated primed T cells incubated in media alone; (3) Enriched primed T cells TCR-stimulated in the absence of α-MSH; (4) Enriched primed T cells TCR-stimulated in the presence of α-MSH. […]

α-melanocyte stimulating hormone (SYSMEHFRWGKPV; not fully specified; ends and bridges not checked; UniProt P01189 138-150, looked up) [α-MSH, synthetic α-MSH (Peninsula Laboratories); thirteen-amino acid neuropeptide derived from POMC]
TCR-stimulated T cell proliferation (primed T cells): no affect; also recorded: no effect | level of tyrosine phosphorylation of CD3ε chains (CD3ε; TCR-stimulated and unstimulated primed T cells, Example I (FIG. 7B)): no effect | relative intensity of phosphotyrosine band, CD3ε (CD3ε; TCR-stimulated primed T cells, α-MSH 30 pg/ml, 15 minutes (lane 4; without α-MSH 10)): 10 | overall level of tyrosine phosphorylation of CD3ε (CD3ε; TCR-stimulated primed T cells, α-MSH 30 pg/ml, 15 minutes, Example III (FIG. 18A)): no significant change | relative intensity of phosphotyrosine band, CD3ε (CD3ε; unstimulated primed T cells, α-MSH 30 pg/ml, 15 minutes (lane 1; media alone 1)): 1
